Values of other authors as cited in patent US20040259850A1, “Method for treating or preventing symptoms of hormonal variation including hot flashes” (priority 2001, published 2004).

Experiments:
hot flashes in patients = conditions: cited from earlier work; for amelioration of hot flashes, general statement: comparison of clonidine with estrogen
[1] = as stated in the background; cited from earlier work

Molecule | side effects [1] | amelioration of hot flashes, general statement (hot flashes in patients) | also measured
CN1CCN2c3ncccc3Cc3ccccc3C2C1 (centres unmarked) [Mirtazapine] |  |  | effect on hot flushes and perspiration bouts (hot flashes in patients; four case reports (Waldinger et al. 2000)): appears to have an ameliorating effect
CC(=O)O[C@]1(C(C)=O)CC[C@H]2[C@@H]3C=C(C)C4=CC(=O)CC[C@]4(C)[C@H]3CC[C@@]21C [megestrol acetate] | chronic adrenal insufficiency can be a side effect |  | effect on frequency of hot flashes (hot flashes in patients; low dose oral, men and women, short term study (Loprinzi et al. 1994)): reduce the frequency of hot flashes
COc1ccc(C(CN(C)C)C2(O)CCCCC2)cc1 (centres unmarked) [venlafaxine] | mouth dryness, decreased appetite, nausea and constipation |  | effect on hot flashes (hot flashes in patients; early studies, survivors of breast cancer (Loprinzi et al. 2000)): effective non-hormonal method to diminish hot flashes
Clc1cccc(Cl)c1N=C1NCCN1 [clonidine] |  | only mildly ameliorates hot flashes | effect on frequency and severity of hot flashes (hot flashes in patients; transdermal, tamoxifen-treated women (Goldberg et al. 1994)): only a moderate effect
estrogen |  | can virtually eliminate them | 
